Calls of active or inactive are those of the source.
Legend:
Type in all cases: functional
[1] = target: T1, Sentrin-specific protease 7 (Homo sapiens, UniProt Q9BQF6);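 further: Luminescence-based dose-response confirmation of ultra-high-throughput screening hits, measuring inhibition of SENP7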
T1 sequence (Q9BQF6 whole entry): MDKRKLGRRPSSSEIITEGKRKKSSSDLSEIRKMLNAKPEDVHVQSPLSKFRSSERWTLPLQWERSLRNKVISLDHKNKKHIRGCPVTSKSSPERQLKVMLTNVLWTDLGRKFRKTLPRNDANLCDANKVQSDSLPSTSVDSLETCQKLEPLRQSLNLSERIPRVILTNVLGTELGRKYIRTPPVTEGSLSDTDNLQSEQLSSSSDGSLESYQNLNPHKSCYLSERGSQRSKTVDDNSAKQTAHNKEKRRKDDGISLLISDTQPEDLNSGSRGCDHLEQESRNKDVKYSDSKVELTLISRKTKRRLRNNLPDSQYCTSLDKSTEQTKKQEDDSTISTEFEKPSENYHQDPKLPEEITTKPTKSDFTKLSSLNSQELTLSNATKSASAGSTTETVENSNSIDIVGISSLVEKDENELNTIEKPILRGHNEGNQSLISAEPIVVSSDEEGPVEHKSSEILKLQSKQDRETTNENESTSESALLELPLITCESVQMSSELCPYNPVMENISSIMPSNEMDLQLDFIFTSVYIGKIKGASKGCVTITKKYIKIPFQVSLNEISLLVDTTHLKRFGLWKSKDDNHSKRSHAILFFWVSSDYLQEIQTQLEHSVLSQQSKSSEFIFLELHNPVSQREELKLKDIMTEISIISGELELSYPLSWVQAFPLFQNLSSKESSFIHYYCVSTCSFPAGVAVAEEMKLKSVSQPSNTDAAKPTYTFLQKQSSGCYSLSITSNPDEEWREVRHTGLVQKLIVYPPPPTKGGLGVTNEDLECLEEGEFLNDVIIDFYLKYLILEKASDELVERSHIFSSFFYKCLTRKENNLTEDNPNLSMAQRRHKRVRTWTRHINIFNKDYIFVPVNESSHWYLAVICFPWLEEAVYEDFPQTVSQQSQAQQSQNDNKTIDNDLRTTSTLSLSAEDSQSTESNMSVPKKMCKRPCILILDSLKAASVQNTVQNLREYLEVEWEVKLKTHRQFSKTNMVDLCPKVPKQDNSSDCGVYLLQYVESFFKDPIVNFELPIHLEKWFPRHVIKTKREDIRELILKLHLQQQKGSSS

[2] = target: T2, Sentrin-specific protease 8 (Homo sapiens, UniProt Q96LD8)
T2 sequence (Q96LD8 whole entry): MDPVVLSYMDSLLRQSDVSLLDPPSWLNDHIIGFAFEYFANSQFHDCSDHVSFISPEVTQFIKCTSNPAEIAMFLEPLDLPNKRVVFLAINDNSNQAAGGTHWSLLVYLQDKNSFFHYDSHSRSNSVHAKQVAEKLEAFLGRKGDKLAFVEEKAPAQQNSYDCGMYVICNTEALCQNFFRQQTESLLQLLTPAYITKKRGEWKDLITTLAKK

[3] = target: Serine/threonine-protein kinase PLK1 (Homo sapiens, UniProt P53350);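 further: PLK1 measured as one member of a kinome-wide profiling panel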
[4] = target: Mitogen-activated protein kinase 12 (Homo sapiens, UniProt P53778);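 further: measured as one member of a kinome-wide kinase profiling panel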
[5] = target: Mitogen-activated protein kinase kinase kinase kinase 5 (Homo sapiens, UniProt Q9Y4K4);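 further: measured as one member of a kinome-spanning kinase panel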
[6] = target: Tyrosine-protein kinase ITK/TSK (Homo sapiens, UniProt Q08881);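 further: affinity for ITK measured as one member of a broad kinase panel profiling binding across the kinome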
[7] = target: Serine/threonine-protein kinase BRSK1 (Homo sapiens, UniProt Q8TDC3);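 further: measured within a kinome-wide kinase panel, with the target listed as KIAA1811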
Chain of Serine/threonine-protein kinase BRSK1 (Q8TDC3 whole entry): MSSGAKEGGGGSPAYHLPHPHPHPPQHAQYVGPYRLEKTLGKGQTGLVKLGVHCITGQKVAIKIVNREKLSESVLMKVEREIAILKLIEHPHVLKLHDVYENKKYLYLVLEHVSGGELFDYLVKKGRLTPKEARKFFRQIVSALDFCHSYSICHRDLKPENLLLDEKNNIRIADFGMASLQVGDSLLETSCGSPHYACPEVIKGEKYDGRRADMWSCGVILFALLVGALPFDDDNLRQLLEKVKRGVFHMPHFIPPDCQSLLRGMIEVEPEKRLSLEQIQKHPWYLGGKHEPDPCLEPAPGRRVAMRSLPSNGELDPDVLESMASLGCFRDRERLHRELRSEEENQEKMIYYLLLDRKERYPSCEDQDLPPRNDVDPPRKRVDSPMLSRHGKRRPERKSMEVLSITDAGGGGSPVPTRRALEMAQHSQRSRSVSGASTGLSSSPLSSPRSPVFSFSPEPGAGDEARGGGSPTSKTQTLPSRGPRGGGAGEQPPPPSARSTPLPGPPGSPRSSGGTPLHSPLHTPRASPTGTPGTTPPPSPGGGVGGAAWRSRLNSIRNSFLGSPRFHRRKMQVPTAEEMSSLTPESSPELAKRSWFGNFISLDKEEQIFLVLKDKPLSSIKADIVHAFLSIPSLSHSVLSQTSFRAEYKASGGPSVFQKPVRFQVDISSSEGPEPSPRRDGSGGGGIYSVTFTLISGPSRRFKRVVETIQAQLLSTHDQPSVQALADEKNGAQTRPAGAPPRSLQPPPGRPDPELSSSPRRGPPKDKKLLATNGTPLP

Chain of Serine/threonine-protein kinase PLK1 (P53350 whole entry): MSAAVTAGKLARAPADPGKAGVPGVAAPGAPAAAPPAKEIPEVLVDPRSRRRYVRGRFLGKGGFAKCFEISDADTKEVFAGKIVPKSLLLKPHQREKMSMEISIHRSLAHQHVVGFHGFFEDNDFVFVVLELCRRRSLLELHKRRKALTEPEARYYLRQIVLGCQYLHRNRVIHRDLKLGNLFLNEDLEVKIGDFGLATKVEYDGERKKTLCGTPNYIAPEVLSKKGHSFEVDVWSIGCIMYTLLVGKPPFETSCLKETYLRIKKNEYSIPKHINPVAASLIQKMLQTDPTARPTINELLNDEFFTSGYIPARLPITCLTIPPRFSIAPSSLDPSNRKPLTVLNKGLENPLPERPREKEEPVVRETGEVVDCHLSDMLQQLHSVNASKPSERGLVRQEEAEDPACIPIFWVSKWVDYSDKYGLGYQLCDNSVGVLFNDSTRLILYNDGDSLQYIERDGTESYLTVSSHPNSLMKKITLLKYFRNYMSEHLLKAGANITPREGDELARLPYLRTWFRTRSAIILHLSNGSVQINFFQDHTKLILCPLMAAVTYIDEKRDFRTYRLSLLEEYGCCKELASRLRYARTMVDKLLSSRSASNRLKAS
Chain of Mitogen-activated protein kinase kinase kinase kinase 5 (Q9Y4K4 whole entry): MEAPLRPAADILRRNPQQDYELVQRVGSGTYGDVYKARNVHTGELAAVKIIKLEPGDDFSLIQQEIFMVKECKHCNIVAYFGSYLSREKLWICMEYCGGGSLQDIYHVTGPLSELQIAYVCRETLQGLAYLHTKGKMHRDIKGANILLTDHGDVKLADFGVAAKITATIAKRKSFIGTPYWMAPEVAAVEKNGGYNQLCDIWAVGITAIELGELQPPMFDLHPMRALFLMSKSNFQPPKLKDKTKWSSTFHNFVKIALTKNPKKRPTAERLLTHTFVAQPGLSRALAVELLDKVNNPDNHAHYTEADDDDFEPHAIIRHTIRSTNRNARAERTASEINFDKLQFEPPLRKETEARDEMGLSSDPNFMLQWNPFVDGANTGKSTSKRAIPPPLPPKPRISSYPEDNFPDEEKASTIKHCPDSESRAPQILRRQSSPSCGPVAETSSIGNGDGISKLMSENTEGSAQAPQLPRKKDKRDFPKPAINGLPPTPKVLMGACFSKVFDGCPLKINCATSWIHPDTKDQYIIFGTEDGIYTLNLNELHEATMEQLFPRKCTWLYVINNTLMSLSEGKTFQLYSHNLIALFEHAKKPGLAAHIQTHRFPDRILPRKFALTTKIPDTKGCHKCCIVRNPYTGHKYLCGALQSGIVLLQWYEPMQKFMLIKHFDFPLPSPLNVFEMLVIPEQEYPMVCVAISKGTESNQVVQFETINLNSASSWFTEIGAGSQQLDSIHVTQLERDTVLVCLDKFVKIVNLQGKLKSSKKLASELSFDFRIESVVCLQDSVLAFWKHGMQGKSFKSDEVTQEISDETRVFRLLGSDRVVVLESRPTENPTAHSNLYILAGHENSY
Chain of Mitogen-activated protein kinase 12 (P53778 whole entry): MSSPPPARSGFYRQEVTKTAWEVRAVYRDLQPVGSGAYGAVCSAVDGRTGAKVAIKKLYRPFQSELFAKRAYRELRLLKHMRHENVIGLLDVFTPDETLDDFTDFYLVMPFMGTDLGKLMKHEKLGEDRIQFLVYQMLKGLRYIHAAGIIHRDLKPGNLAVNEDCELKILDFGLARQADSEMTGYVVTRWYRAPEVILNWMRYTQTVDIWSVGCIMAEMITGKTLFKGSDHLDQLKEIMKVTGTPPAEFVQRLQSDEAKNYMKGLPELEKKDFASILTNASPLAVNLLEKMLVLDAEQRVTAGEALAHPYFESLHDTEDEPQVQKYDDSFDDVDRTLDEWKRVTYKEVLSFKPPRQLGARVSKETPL
Chain of Tyrosine-protein kinase ITK/TSK (Q08881 whole entry): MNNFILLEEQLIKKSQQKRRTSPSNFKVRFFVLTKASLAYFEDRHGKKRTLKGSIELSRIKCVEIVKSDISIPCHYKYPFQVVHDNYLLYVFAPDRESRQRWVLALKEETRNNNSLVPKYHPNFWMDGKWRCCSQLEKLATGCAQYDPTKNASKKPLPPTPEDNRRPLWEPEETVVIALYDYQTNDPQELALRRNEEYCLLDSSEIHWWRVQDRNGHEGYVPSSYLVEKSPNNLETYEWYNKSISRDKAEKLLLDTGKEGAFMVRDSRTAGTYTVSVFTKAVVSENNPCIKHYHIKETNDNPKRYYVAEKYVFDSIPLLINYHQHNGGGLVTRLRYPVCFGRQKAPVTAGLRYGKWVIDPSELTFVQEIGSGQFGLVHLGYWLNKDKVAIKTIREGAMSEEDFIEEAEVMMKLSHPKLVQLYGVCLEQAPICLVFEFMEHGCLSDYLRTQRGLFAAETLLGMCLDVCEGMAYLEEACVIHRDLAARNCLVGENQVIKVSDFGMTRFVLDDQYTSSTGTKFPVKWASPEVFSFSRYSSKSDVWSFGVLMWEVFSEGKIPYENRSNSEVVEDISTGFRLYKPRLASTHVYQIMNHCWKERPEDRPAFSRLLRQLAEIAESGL

Ki [3] | Ki [4] | Ki [5] | Ki [6] | Ki [7] | SMILES | IC50 [1] | IC50 [2]
 |  |  |  |  | O=C1C2=[N+]([O-])[C@H]3CCCC[C@H]3[N+]([O-])=C2c2ccccc21 | 16.8 µM (active) | 5.98 µM (active)
> 7.94 µM (inactive) | 0.794 µM (active) | 0.0251 µM (active) | 0.631 µM (active) | 5.01 µM (active) | NC1CCC(Nc2nccc(-c3c[nH]c4ncccc34)n2)CC1 (configuration not stated) |  | 

From ChEMBL document CHEMBL1201862, “PubChem BioAssay data set” (2004)
